The text below walks through data of patent publication US10576062B2, “Carbamoyloxymethyl triazole cyclohexyl acids as LPA antagonists” (Bristol-Myers Squibb Company, priority 2016, dated 2020).

The test deals with T1, human LPA1 (Homo sapiens, UniProt Q92633).
T1 construct: expressed in transfected cells; host or cells: Chinese hamster ovary (CHO) cells
T1 sequence (Q92633 whole entry): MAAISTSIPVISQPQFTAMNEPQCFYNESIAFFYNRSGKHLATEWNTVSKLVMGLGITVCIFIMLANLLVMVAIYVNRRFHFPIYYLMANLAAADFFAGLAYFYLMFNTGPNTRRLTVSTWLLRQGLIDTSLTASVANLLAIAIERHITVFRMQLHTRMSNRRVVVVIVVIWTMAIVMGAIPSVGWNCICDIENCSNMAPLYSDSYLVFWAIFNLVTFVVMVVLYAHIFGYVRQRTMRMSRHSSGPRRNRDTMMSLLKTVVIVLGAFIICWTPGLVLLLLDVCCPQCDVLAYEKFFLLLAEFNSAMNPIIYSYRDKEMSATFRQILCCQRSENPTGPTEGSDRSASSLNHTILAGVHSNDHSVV
The experiment in a line: LPA1 functional antagonist assay (LPA-induced calcium flux). Format: cell-based. Conditions: read-out: hLPA1 IC50. The procedure, abridged: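 CHO cells overexpressing human LPA1, loaded with calcium dye 30 min at 37° C, were preincubated 20 min at room temperature with compound (0.08 nM–5 μM, 0.5% DMSO) in HBSS/20 mM HEPES/0.1% fatty acid-free BSA.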
(Calcium flux is commonly read through the fluorescence of an indicator in the cells.)
Broadly, the IC50 is the concentration that gives 50% inhibition. Consider `Cc1cc(-c2nnn(C)c2COC(=O)N(C)C2CCCC2)ccc1O[C@H]1CCC[C@H](C(=O)O)C1` [Example 41, (1S,3S)-3-(4-(5-(((cyclopentyl(methyl)carbamoyl)oxy)methyl)-1-methyl-1H-1,2,3-triazol-4-yl)-2-methylphenoxy)cyclohexane-1-carboxylic acid], for which the IC50 was 14 nM.
In the case of `Cc1cc(-c2nnn(C)c2COC(=O)N(C)CCC(C)C)ncc1O[C@H]1CCC[C@H](C(=O)O)C1` [Example 42, (1S,3S)-3-((6-(5-(((isopentyl(methyl)carbamoyl)oxy)methyl)-1-methyl-1H-1,2,3-triazol-4-yl)-4-methylpyridin-3-yl)oxy)cyclohexane-1-carboxylic acid] it was 3750 nM; in that of `CCCCN(C)C(=O)OCc1c(-c2ccc(O[C@H]3CCC[C@H](C(=O)O)C3)cn2)nnn1C` [Example 43, (1S,3S)-3-((6-(5-(((butyl(methyl)carbamoyl)oxy)methyl)-1-methyl-1H-1,2,3-triazol-4-yl)pyridin-3-yl)oxy)cyclohexane-1-carboxylic acid], 7 nM; in that of `CN(C(=O)OCc1c(-c2ccc(O[C@H]3CCC[C@H](C(=O)O)C3)c(F)c2)nnn1C)C1CCCC1` [Example 44, (1S,3S)-3-(4-(5-(((cyclopentyl(methyl)carbamoyl)oxy)methyl)-1-methyl-1H-1,2,3-triazol-4-yl)-2-fluorophenoxy)cyclohexane-1-carboxylic acid], 6 nM.
For the compound `CCCCN(C)C(=O)OCc1c(-c2ccc(O[C@H]3CCC[C@H](C(=O)O)C3)c(F)c2)nnn1C` [Example 46, (1S,3S)-3-(4-(5-(((butyl(methyl)carbamoyl)oxy)methyl)-1-methyl-1H-1,2,3-triazol-4-yl)-2-fluorophenoxy)cyclohexane-1-carboxylic acid], the IC50 stood at 6 nM.
Regarding `CC(C)CCN(C)C(=O)OCc1c(-c2ccc(O[C@H]3CCC[C@H](C(=O)O)C3)c(F)c2)nnn1C` [Example 47, (1S,3S)-3-(2-fluoro-4-(5-(((isopentyl(methyl)carbamoyl)oxy)methyl)-1-methyl-1H-1,2,3-triazol-4-yl)phenoxy)cyclohexane-1-carboxylic acid], the IC50 worked out at 3 nM.
As for `C[C@@H](C1CC1)N(C)C(=O)OCc1c(-c2ccc(O[C@H]3CCC[C@H](C(=O)O)C3)cc2)nnn1C` [Example 52, (1S,3S)-3-(4-(5-(((((S)-1-cyclopropylethyl)(methyl)carbamoyl)oxy)methyl)-1-methyl-1H-1,2,3-triazol-4-yl)phenoxy)cyclohexane-1-carboxylic acid], the IC50 was 197 nM.
For `CC(C)CN(C)C(=O)OCc1c(-c2ccc(O[C@H]3CCC[C@H](C(=O)O)C3)cc2)nnn1C` [Example 53, (1S,3S)-3-(4-(5-(((isobutyl(methyl)carbamoyl)oxy)methyl)-1-methyl-1H-1,2,3-triazol-4-yl)phenoxy)cyclohexane-1-carboxylic acid], the IC50 is 440 nM.
`C[C@H](C1CC1)N(C)C(=O)OCc1c(-c2ccc(O[C@H]3CCC[C@H](C(=O)O)C3)c(F)c2)nnn1C` [Example 70, (1S,3S)-3-(4-(5-(((((R)-1-cyclopropylethyl)(methyl)carbamoyl)oxy)methyl)-1-methyl-1H-1,2,3-triazol-4-yl)-2-fluorophenoxy)cyclohexane-1-carboxylic acid]: the IC50 is 10 nM.
Turning to `CN(C(=O)OCc1c(-c2ccc(O[C@@H]3CCC[C@@H](C(=O)NS(C)(=O)=O)C3)cc2)nnn1C)C1CCCC1` [Example 72, (1-Methyl-4-(4-(((1R,3R)-3-((methylsulfonyl)carbamoyl)cyclohexyl)oxy)phenyl)-1H-1,2,3-triazol-5-yl)methyl cyclopentyl(methyl)carbamate], the IC50 worked out at 2780 nM.
Turning to `CN(C(=O)OCc1c(-c2ccc(O[C@H]3CCC[C@H](C(=O)O)C3)cc2)nnn1C)C1CCC1` [Example 73, (1S,3S)-3-(4-(5-(((cyclobutyl(methyl)carbamoyl)oxy)methyl)-1-methyl-1H-1,2,3-triazol-4-yl)phenoxy)cyclohexane-1-carboxylic acid], the IC50 is 62 nM.
For `CN(C(=O)OCc1c(-c2ccc(O[C@H]3CCC[C@H](C(=O)O)C3)cc2)nnn1C)C(C1CC1)C1CC1` [Example 74, (1S,3S)-3-(4-(5-((((Dicyclopropylmethyl)(methyl)carbamoyl)oxy)methyl)-1-methyl-1H-1,2,3-triazol-4-yl)phenoxy)cyclohexanecarboxylic acid], the half-inhibitory concentration (IC50) amounted to 100 nM.
`CCCC1(N(C)C(=O)OCc2c(-c3ccc(O[C@H]4CCC[C@H](C(=O)O)C4)cc3)nnn2C)CC1` [Example 75, (1S,3S)-3-(4-(1-methyl-5-(((methyl(1-propylcyclopropyl)carbamoyl)oxy)methyl)-1H-1,2,3-triazol-4-yl)phenoxy)cyclohexane-1-carboxylic acid]: the IC50 came to 20 nM.
For the compound `CCC(CC)N(C)C(=O)OCc1c(-c2ccc(O[C@H]3CCC[C@H](C(=O)O)C3)cc2)nnn1C` [Example 76, (1S,3S)-3-(4-(1-methyl-5-(((methyl(pentan-3-yl)carbamoyl)oxy)methyl)-1H-1,2,3-triazol-4-yl)phenoxy)cyclohexane-1-carboxylic acid], the IC50 is 47 nM.
In the case of `CCCC(C)(C)N(C)C(=O)OCc1c(-c2ccc(O[C@H]3CCC[C@H](C(=O)O)C3)cn2)nnn1C` [Example 78, (1S,3S)-3-((6-(1-methyl-5-(((methyl(2-methylpentan-2-yl)carbamoyl)oxy)methyl)-1H-1,2,3-triazol-4-yl)pyridin-3-yl)oxy)cyclohexane-1-carboxylic acid] it was 27 nM; in that of `CN(C(=O)OCc1c(-c2ccc(O[C@H]3CCC[C@H](C(=O)O)C3)cn2)nnn1C)C1(C)CC1` [Example 79, (1S,3S)-3-((6-(1-methyl-5-(((methyl(1-methylcyclopropyl)carbamoyl)oxy)methyl)-1H-1,2,3-triazol-4-yl)pyridin-3-yl)oxy)cyclohexane-1-carboxylic acid], 45 nM.
In the case of `CN(C(=O)OCc1c(-c2ccc(O[C@H]3CCC[C@H](C(=O)O)C3)cn2)nnn1C)C(C1CC1)C1CC1` [Example 80, (1S,3S)-3-((6-(5-((((Dicyclopropylmethyl)(methyl)carbamoyl)oxy)methyl)-1-methyl-1H-1,2,3-triazol-4-yl)pyridin-3-yl)oxy)cyclohexanecarboxylic acid], the IC50 turned out to be 60 nM.
Turning to `CCCC1(N(C)C(=O)OCc2c(-c3ccc(O[C@H]4CCC[C@H](C(=O)O)C4)cn3)nnn2C)CC1` [Example 81, (1S,3S)-3-((6-(1-methyl-5-(((methyl(1-propylcyclopropyl)carbamoyl)oxy)methyl)-1H-1,2,3-triazol-4-yl)pyridin-3-yl)oxy)cyclohexane-1-carboxylic acid], the IC50 was 61 nM.
Turning to `[2H]C([2H])([2H])n1nnc(-c2ccc(O[C@H]3CCC[C@H](C(=O)O)C3)cn2)c1COC(=O)N(C)CC1CCC1` [Example 82, (1S,3S)-3-((6-(5-((((cyclobutylmethyl)(methyl)carbamoyl)oxy)methyl)-1-(methyl-d3)-1H-1,2,3-triazol-4-yl)pyridin-3-yl)oxy)cyclohexane-1-carboxylic acid], the IC50 was determined as 28 nM.
`CCC(CC)N(C)C(=O)OCc1c(-c2ccc(O[C@H]3CCC[C@H](C(=O)O)C3)c(C)n2)nnn1C` [Example 83, (1S,3S)-3-((2-Methyl-6-(1-methyl-5-(((methyl(pentan-3-yl)carbamoyl)oxy)methyl)-1H-1,2,3-triazol-4-yl)pyridin-3-yl)oxy)cyclohexanecarboxylic acid]: the IC50 was 92 nM.
On to `CCCC(C)(C)N(C)C(=O)OCc1c(-c2ccc(O[C@H]3CCC[C@H](C(=O)O)C3)c(C)n2)nnn1C` [Example 84, (1S,3S)-3-((2-methyl-6-(1-methyl-5-(((methyl(2-methylpentan-2-yl)carbamoyl)oxy)methyl)-1H-1,2,3-triazol-4-yl)pyridin-3-yl)oxy)cyclohexanecarboxylic acid], for which the IC50 worked out at 69 nM.
As to `Cc1nc(-c2nnn(C)c2COC(=O)N(C)C2(C)CC2)ccc1O[C@H]1CCC[C@H](C(=O)O)C1` [Example 85, (1S,3S)-3-((2-methyl-6-(1-methyl-5-(((methyl(1-methylcyclopropyl)carbamoyl)oxy)methyl)-1H-1,2,3-triazol-4-yl)pyridin-3-yl)oxy)cyclohexane-1-carboxylic acid], the IC50 was found to be 58 nM.
For `Cc1nc(-c2nnn(C)c2COC(=O)N(C)C(C2CC2)C2CC2)ccc1O[C@H]1CCC[C@H](C(=O)O)C1` [Example 86, (1S,3S)-3-((6-(5-((((Dicyclopropylmethyl)(methyl)carbamoyl)oxy)methyl)-1-methyl-1H-1,2,3-triazol-4-yl)-2-methylpyridin-3-yl)oxy)cyclohexanecarboxylic acid], the IC50 was 54 nM.
As to `CCCC1(N(C)C(=O)OCc2c(-c3ccc(O[C@H]4CCC[C@H](C(=O)O)C4)c(C)n3)nnn2C)CC1` [Example 87, (1S,3S)-3-((2-methyl-6-(1-methyl-5-(((methyl(1-propylcyclopropyl)carbamoyl)oxy)methyl)-1H-1,2,3-triazol-4-yl)pyridin-3-yl)oxy)cyclohexane-1-carboxylic acid], the IC50 was 36 nM.
Take `CC(OC(=O)N(C)C1CCCC1)c1c(-c2ccc(O[C@H]3CCC[C@H](C(=O)O)C3)cc2)nnn1C` (stereo partly drawn) [Example 94, (1S,3S)-3-(4-(5-(1-((cyclopentyl(methyl)carbamoyl)oxy)ethyl)-1-methyl-1H-1,2,3-triazol-4-yl)phenoxy)cyclohexane-1-carboxylic acid]: the IC50 was determined as 241 nM.
As to `Cc1nc(-c2nnn(C)c2COC(=O)N(C)Cc2ccccc2F)ccc1O[C@H]1CCC[C@H](C(=O)O)C1` [Example 98, (1S,3S)-3-((6-(5-((((2-fluorobenzyl)(methyl)carbamoyl)oxy)methyl)-1-methyl-1H-1,2,3-triazol-4-yl)-2-methylpyridin-3-yl)oxy)cyclohexane-1-carboxylic acid], the IC50 stood at 19 nM.
